In patent publication EP4778511A1, “PHARMACEUTICAL COMPOSITION, DRUG-LOADED ROD CORE, IMPLANT, PREPARATION METHOD THEREFOR, AND USE THEREOF” (SHENYANG XINGHUA PHARMACEUTICAL TECHNOLOGY CO., LTD, priority 2023, dated 2025):
Read-outs that look alike come from different tables or passages of the source.

Columns and labels:
[1] = reagent table, cited from earlier work
[2] = Average particle size and PDI of paliperidone after wet grinding (nanonization); type: physicochemical
Method: Active pharmaceutical ingredient: stabilizer = 5:1. The ball mill speed was 400 r·min^-1, the grinding media was 0.2 mm of zirconia beads with a volume of 20 mL, and the grinding time was 50 min. The effects of stabilizer types Poloxamer 188 (P188), Tween 80, Poloxamer 407 (P407), SDS, HPMC on the average particle size and PDI (PDI is a dimensionless value reflecting the width of particle size distribution, ranging from 0 to 1, a smaller value indicates a more uniform and narrower particle size distribution) of the active pharmaceutical ingredient after grinding are investigated. Table 29 Effects of different stabilizers on average particle size and PDI
Active pharmaceutical ingredient: stabilizer = 5:1. The ball mill speed was 400 r·min^-1, Poloxamer 188 was used as the stabilizer, the grinding media was 20 mL, and the grinding time was 50 min. The effects of 0.1 mm, 0.2 mm, and 0.3 mm zirconia beads on the average particle size and PDI of the active pharmaceutical ingredient after grinding were investigated. Table 30 Effects of different types of grinding media on average particle size and PDI
Active pharmaceutical ingredient: stabilizer = 5:1. The ball mill speed was 400 r·min^-1, Poloxamer 188 was used as the stabilizer, the grinding media was 0.1 mm zirconia beads. The effects of grinding time for 15 min, 25 min, 35 min, 45 min, 50 min, 60 min on the average particle size and PDI of the active pharmaceutical ingredient after grinding were investigated. Table 31 Effects of different grinding time on average particle size and PDI

[3] = stabilizer HPMC, 0.2 mm zirconia beads, grinding 50 min
[4] = stabilizer P188, 0.1 mm zirconia beads, grinding 15 min
[5] = stabilizer P188, 0.1 mm zirconia beads, grinding 25 min
[6] = stabilizer P188, 0.1 mm zirconia beads, grinding 35 min
[7] = stabilizer P188, 0.1 mm zirconia beads, grinding 45 min
[8] = stabilizer P188, 0.1 mm zirconia beads, grinding 50 min
[9] = stabilizer P188, 0.1 mm zirconia beads, grinding 60 min
[10] = stabilizer P188, 0.2 mm zirconia beads, grinding 50 min
[11] = stabilizer P188, 0.3 mm zirconia beads, grinding 50 min
[12] = stabilizer P407, 0.2 mm zirconia beads, grinding 50 min
[13] = stabilizer SDS, 0.2 mm zirconia beads, grinding 50 min
[14] = stabilizer Tween, 0.2 mm zirconia beads, grinding 50 min

N[C@@H](Cc1cc(I)c(Oc2cc(I)c(O)c(I)c2)c(I)c1)C(=O)O [levothyroxine sodium]
solubility [1]: levothyroxine sodium (purity 99%), molecular weight: 800.87, solubility: 150 µg/ml

C#C[C@]1(O)C=C[C@H]2[C@@H]3CCC4=CC(=O)CC[C@@H]4[C@H]3CC[C@@]21CC [Gestodene]
solubility ([1]; in water): Gestodene (purity 98%), molecular weight: 310.43, insoluble in water

Cc1nc2n(c(=O)c1CCN1CCC(c3noc4cc(F)ccc34)CC1)CCCC2O (stereo not shown) [Paliperidone]
Average particle size [2, 3]: 330 nm | PDI [2, 3]: 0.18 | Average particle size [2, 4]: 820 nm | PDI [2, 4]: 0.13 | Average particle size [2, 5]: 646 nm | PDI [2, 5]: 0.14 | Average particle size [2, 6]: 430 nm | PDI [2, 6]: 0.09 | Average particle size [2, 7]: 246 nm | PDI [2, 7]: 0.08 | Average particle size [2, 8]: 220 nm | PDI [2, 8]: 0.06 | Average particle size [2, 9]: 253 nm | PDI [2, 9]: 0.12 | Average particle size [2, 10]: 240 nm | PDI [2, 10]: 0.15 | Average particle size [2, 11]: 420 nm | PDI [2, 11]: 0.25 | Average particle size [2, 12]: 417 nm | PDI [2, 12]: 0.26 | Average particle size [2, 13]: 320 nm | PDI [2, 13]: 0.21 | Average particle size [2, 14]: 250 nm | PDI [2, 14]: 0.07 | solubility [1]: Paliperidone (purity 98%), molecular weight: 426.48, solubility: 30 µg/ml.

CC(=O)O[C@H]1C(=O)[C@@]2(C)[C@H]([C@H](OC(=O)c3ccccc3)[C@]3(O)C[C@H](OC(=O)[C@H](O)[C@@H](NC(=O)c4ccccc4)c4ccccc4)C(C)=C1C3(C)C)[C@]1(OC(C)=O)CO[C@@H]1C[C@@H]2O [Paclitaxel]
solubility ([1]; in water): Paclitaxel (purity 99%), molecular weight: 853.92, insoluble in water
